Source: PMC10628858, “Investigation of new ferrocenyl-artesunate derivatives as antiparasitics” (Dalton Transactions (Cambridge, England : 2003), 2023)

Legend:
[1] = Aqueous stability (hydrolysis) by UV-Vis kinetic scan in 10% MeOH (aq); assay type: physicochemical
Description: Since biological systems are comprised of water, the behavior and stability of a drug in aqueous media is important. To determine the stability, each complex was dissolved in MeOH and then diluted to 10% MeOH (aq). The solutions were then monitored by UV-Vis spectroscopy using a kinetic scan in the range 190–1100 nm over 1 hour. […] Hydrolysis was also supported by RP-HPLC in which new peaks emerged corresponding to the starting ferrocene precursors, F2 and F4. […] […] The major difference being between C1/C2 and C3/C4 is the nature of the linkage either being an ester or an amide bond. It is expected that the hydrolysis of C2 would occur quicker due to the more labile nature of the ester bond.
UV-Vis studies were performed by dissolving each complex in methanol to a concentration of 1 mM. This was then diluted using distilled water in a 10% methanol/water mixture giving a final concentration of 100 μM. The complexes were then monitored using a kinetic scan between the range 190–1100 nm scanning each minute over the course of one hour. […]

P. falciparum, NF54 = assay: P. falciparum growth inhibition assay (Malstat); assay type: cell-based, Plasmodium falciparum; settings: 72 h, maximum concentration tested 6000 nM, three independent experiments in triplicate, ± SEM; read-out: IC50 against P. falciparum, NF54
Description: The antimalarial activities of C1 to C4 and F1 to F3 were determined against the wild-type drug sensitive strain of P. falciparum, NF54. […]. Further, a close link between activity and oxidation potentials of the drugs was found. The lower the oxidation potential of the ferrocene moiety, the higher the activity of the final compound, giving directions for future compound development.
The drugs were prepared as 10 mM stocks in sterile DMSO. The drugs were then diluted using freshly prepared growth medium to the desired testing concentrations. Chloroquine and artesunate were used as standards. A full dose–response was preformed using a 96-well plate assay and the IC50 values determined. The maximum concentration tested was 6 μM which was then serially diluted 2-fold in growth media. The plates were incubated at 37 °C for 72 h at 3% O2 and 4% CO2. After 72 h the wells were resuspended and 15 μL of the suspension was transferred to a duplicate plate containing 100 μL of Malstat reagent and 25 μL of nitroblue tetrazolium solution. The plates were allowed 20 minutes in the dark to develop and the absorbance of each well was measured using UV-Vis at 620 nm.

[2] = Stability on HPLC in an aqueous environment; assay type: physicochemical; settings: aqueous environment (H2O/MeOH)
Description: Resonances belonging to the unsubstituted cyclopentadienyl ring of the ferrocene appeared as a singlet between 4.17 and 4.20 ppm and two triplets which correspond to the substituted ring.
Purity analysis was performed on an Agilent 1260 Infinity II high-performance liquid chromatography (HPLC) system with a DAD detector. A Kinetex C18 100 Å column was used with dimensions, 150 × 4.6 mm with a 5 μm […]. A mobile phase of (A) H2O (B) MeOH was used at gradients of t = 0 min 10% B, t = 15 min 80% B, t = 35 min 80% B, t = 37 min 10% B and t = 45 min 10% B over a 45 min period. The flow rate was set to 1 mL min^−1, and the detection wavelength was set at 260 nm with the reference wavelength at 360 nm. 50 μL sample was injected, with needle washes of MeOH between injections. The peaks were manually integrated to gain the percentage area. Samples were dissolved in 10% MeOH/90% H2O at 100 μM concentrations.

[3] = tested on: P. falciparum 3D7 (chloroquine sensitive); set-up: method as in doi:10.1016/j.jorganchem.2023.122633; settings: chloroquine sensitive strain; cited from earlier work
[4] = tested on: P. falciparum Dd2 (chloroquine resistant); set-up: method as in doi:10.1016/j.jorganchem.2023.122633; settings: chloroquine resistant strain; cited from earlier work
T. gondii (ΔKu80:mNeon) = assay: Immunofluorescence microscopy of intracellular T. gondii; assay type: cell-based, Toxoplasma gondii; settings: 5 μM; for Parasite replication: 24 hours
Description: To determine morphological changes associated with drug treatment, immunofluorescence microscopy of T. gondii was performed after 24 hours or 48 hours of drug treatment at a concentration of 5 μM.
Since artemisinin has previously been reported to accumulate in the membrane of P. falciparum due to its affinity for neutral lipids,[46] it was hypothesized that the complex C3 may be doing the same thing in T. gondii. Then, upon activation of the endoperoxide bridge, this causes oxidative damage to the membranes, leading to disruption and release of parasite cytosolic contents.
Coverslips preseeded with HFF cells were infected with ΔKu80:mNeonGreen and incubated at 37 °C for 1 h to allow invasion. Following this, drug (5 μM) was added, and the plates placed back in the incubator for 24 hours. Cells were washed with 1 mL of sterile PBS, which was then again removed and 500 μL of 4% paraformaldehyde (PFA) was added and incubated at room temperature for 20 minutes. The PFA was removed, cell washed once with PBS. Cells were blocked and permeabilisated with incubation 500 μL of 2% bovine serum albubin (BSA), 0.5% Triton X-100 in PBD overnight at 4 °C. The coverslips were then removed and submerged in distilled water three times and mounted using Fluoromount with DAPI (Southern Biotech). The slides were then visualized using a DeltaVision fluorescent microscope (Applied Precision) and processed using SoftWoRx and FIJI software.

[5] = change in absorbance at 254 nm over one hour, ExpDec1 fit
[6] = no curve could be fitted within one hour

SMILES | Half-life [1, 5] | Rate constant (hydrolysis) [1, 5] | IC50 (P. falciparum, NF54) | Stability on HPLC [2] | Activity against P. falciparum 3D7 [3] | Activity against P. falciparum Dd2 [4] | Half-life [1, 6] | Parasite replication (T. gondii (ΔKu80:mNeon)) | Parasite morphology (T. gondii (ΔKu80:mNeon); 24 hours or 48 hours)
CC1CCC2C(C)C(OC(=O)CCC(=O)NC[c-]3cccc3)OC3OC4(C)CCC1C32OO4.[Fe+2].c1cc[cH-]c1 (centres unmarked) [Compound C4] | 0.155 ± 0.0035 h | 0.074 ± 0.0016 min⁻¹ | 0.012 ± 0.002 µM | high degree of instability | 6.1 nM | 3.0 nM | – | – | –
CC1CCC2C(C)C(OC(=O)CCC(=O)NCCNC(=O)[c-]3cccc3)OC3OC4(C)CCC1C32OO4.[Fe+2].c1cc[cH-]c1 (centres unmarked) [Compound C3] | – | – | 4.9 ± 0.93 µM | high degree of instability | – | – | >1 h | completely block replication | novel morphology
CC1CCC2C(C)C(OC(=O)CCC(=O)OCCNC(=O)[c-]3cccc3)OC3OC4(C)CCC1C32OO4.[Fe+2].c1cc[cH-]c1 (centres unmarked) [Compound C1] | – | – | 3.4 ± 0.53 µM | – | – | – | >1 h | completely block replication | –
